In patent US7115642B2, “Substituted diphenyl isoxazoles, pyrazoles and oxadiazoles useful for treating HCV infection” (priority 2003, dated 2006):
pIC50: −log10 of the molar value.

Tested on: HCV replicon (5-2 Luc replicon-comprising cells)
Test: HCV replicon assay (luciferase)
Assay type: cell-based, Hepatitis C virus
Details: 5-2 Luc replicon cells, luciferase readout; read-out: Replicon IC50
Excerpt: In one embodiment, the inhibitory activity of the compounds can be confirmed in a replicon assay that assesses the ability of a test compound to block or inhibit HCV replication in replicon cells. One example of a suitable replicon assay is the liver cell-line Huh 7-based replicon assay described in Lohmann et al., 1999, Science 285:110–113. A specific example of this replicon assay which utilizes luciferase translation is provided in the Examples Section. In one embodiment of this assay, the amount of test compound that yields a 50% reduction in translation as compared to a control cell (IC50) may be determined.
The inhibitory activity of certain exemplary compounds of the invention was confirmed using an HCV replicon assay. The HCV replicon can include such features as the HCV 5′ untranslated region including the HCV IRES, the HCV 3′ untranslated region, selected HCV genes encoding HCV polypeptides, selectable markers, and a reporter gene such as luciferase, GFP, etc. In the assay, actively dividing 5-2 Luc replicon-comprising cells (obtained from Ralf Bartenschlager; see Lohmann et al., 1999, Science 285:110–113) were seeded at a density of between about 5,000 and 7,500 cells/well onto 96 well plates (about 90 μl of cells per well) and incubated at 37° C. and 5% CO2 for 24 hours. Then, the test compound (in a volume of about 10 μl) was added to the wells at various concentrations and the cells were incubated for an additional 24 hours before luciferase assay. Briefly, the Bright-Glo reagent was diluted 1:1 with PBS and 100 μl of diluted reagent was added to each well. After 5 min of incubation at room temperature, luciferin emission was quantified with a luminometer. In this assay, the amount of test compound that yielded a 50% reduction in luciferase activity (IC50) was determined.
In TABLE 1, a value of “+” indicates an IC50 of 10 μM or less in the specified assay; a value of “−” indicates an IC50 of greater than 10 μM in the specified assay.

CN(C)C(=O)N1CCN(c2cccc(Cl)c2-c2cc(-c3cccc(NC(=O)C(Cl)Cl)c3)on2)CC1 [Compound 531]
pIC50: > 5.00

CC(C)(C)OC(=O)NC(Cc1ccccc1)C(=O)N1CCN(c2cccc(Cl)c2-c2cc(-c3cccc(NC(=O)C(Cl)Cl)c3)on2)CC1 (centres unmarked) [Compound 532]
pIC50: > 5.00

O=C(Nc1cccc(-c2cc(-c3c(Cl)cccc3N3CCN(C(=O)Cc4ccccc4)CC3)no2)c1)C(Cl)Cl [Compound 533]
pIC50: > 5.00

O=C(Nc1cccc(-c2cc(-c3c(Cl)cccc3N3CCN(C(=O)Nc4ccccc4)CC3)no2)c1)C(Cl)Cl [Compound 534]
pIC50: > 5.00

O=C(Nc1cccc(-c2cc(-c3c(Cl)cccc3N3CCN(C(=O)C4CC4)CC3)no2)c1)C(Cl)Cl [Compound 535]
pIC50: > 5.00

O=C(Nc1cccc(-c2cc(-c3c(Cl)cccc3N3CCN(c4ccc(C(F)(F)F)cn4)CC3)no2)c1)C(Cl)Cl [Compound 536]
pIC50: > 5.00

O=C(Nc1cccc(-c2cc(-c3c(Cl)cccc3N3CCN(c4ncccc4C(F)(F)F)CC3)no2)c1)C(Cl)Cl [Compound 538]
pIC50: > 5.00

O=C(Nc1cccc(-c2cc(-c3c(Cl)cccc3N3CCN(C(=O)c4c[nH]cn4)CC3)no2)c1)C(Cl)Cl [Compound 539]
pIC50: > 5.00

CN(C)S(=O)(=O)N1CCN(c2cccc(Cl)c2-c2cc(-c3cccc(NC(=O)C(Cl)Cl)c3)on2)CC1 [Compound 540]
pIC50: > 5.00

NC(Cc1ccccc1)C(=O)N1CCN(c2cccc(Cl)c2-c2cc(-c3cccc(NC(=O)C(Cl)Cl)c3)on2)CC1 (centres unmarked) [Compound 541]
pIC50: < 5.00

Nc1cccc(Cl)c1-c1cc(-c2cccc(NC(=O)C(Cl)Cl)c2)on1 [Compound 542]
pIC50: > 5.00

O=C(NC1CCN(c2cccc(Cl)c2-c2cc(-c3cccc(NC(=O)C(Cl)Cl)c3)on2)CC1)c1ccco1 [Compound 543]
pIC50: > 5.00

O=C(NC1CCN(c2cccc(Cl)c2-c2cc(-c3cccc(NC(=O)C(Cl)Cl)c3)on2)CC1)c1ccccn1 [Compound 544]
pIC50: > 5.00

O=C(NC1CCN(c2cccc(Cl)c2-c2cc(-c3cccc(NC(=O)C(Cl)Cl)c3)on2)CC1)c1cccnc1 [Compound 545]
pIC50: > 5.00

CS(=O)(=O)NC1CCN(c2cccc(Cl)c2-c2cc(-c3cccc(NC(=O)C(Cl)Cl)c3)on2)CC1 [Compound 546]
pIC50: > 5.00

O=C(Nc1cccc(-c2cc(-c3c(Cl)cccc3N3CCC(NS(=O)(=O)c4ccccc4)CC3)no2)c1)C(Cl)Cl [Compound 547]
pIC50: > 5.00

O=C(Nc1ccccc1)NC1CCN(c2cccc(Cl)c2-c2cc(-c3cccc(NC(=O)C(Cl)Cl)c3)on2)CC1 [Compound 548]
pIC50: > 5.00

O=C(Nc1cccc(-c2cc(-c3c(Cl)cccc3N3CCN(Cc4ccccc4)CC3)no2)c1)C(Cl)Cl [Compound 549]
pIC50: > 5.00

O=C(Nc1cccc(-c2cc(-c3c(Cl)cccc3N3CCN(c4cccnc4)CC3)no2)c1)C(Cl)Cl [Compound 550]
pIC50: > 5.00

O=C(Nc1cccc(-c2cc(-c3c(Cl)cccc3N3CCN(C(=O)c4ccncc4)CC3)no2)c1)C(Cl)Cl [Compound 552]
pIC50: > 5.00

O=C(Nc1cccc(-c2cc(-c3c(Cl)cccc3N3CCN(C(=O)c4cccnc4)CC3)no2)c1)C(Cl)Cl [Compound 553]
pIC50: > 5.00

O=C(Nc1cccc(-c2cc(-c3c(Cl)cccc3N3CCN(C(=O)c4cccs4)CC3)no2)c1)C(Cl)Cl [Compound 554]
pIC50: > 5.00

O=C(Nc1cccc(-c2cc(-c3c(Cl)cccc3N3CCN(C(=O)c4cc5ccccc5[nH]4)CC3)no2)c1)C(Cl)Cl [Compound 555]
pIC50: > 5.00

O=C(Nc1cccc(-c2cc(-c3c(Cl)cccc3N3CCN(C(=O)c4cnccn4)CC3)no2)c1)C(Cl)Cl [Compound 556]
pIC50: > 5.00

O=C(Nc1cccc(-c2cc(-c3c(Cl)cccc3N3CCN(C(=O)c4ccc(-c5ccccc5)cc4)CC3)no2)c1)C(Cl)Cl [Compound 557]
pIC50: < 5.00

O=C(Nc1cccc(-c2cc(-c3c(Cl)cccc3N3CCN(C(=O)Cc4cccnc4)CC3)no2)c1)C(Cl)Cl [Compound 558]
pIC50: > 5.00

O=C(Nc1cccc(-c2cc(-c3c(Cl)cccc3Oc3cccnc3)no2)c1)C(Cl)Cl [Compound 559]
pIC50: > 5.00

CC(=O)Nc1cccc(Cl)c1-c1cc(-c2cccc(NC(=O)C(Cl)Cl)c2)on1 [Compound 560]
pIC50: > 5.00

CS(=O)(=O)Nc1cccc(Cl)c1-c1cc(-c2cccc(NC(=O)C(Cl)Cl)c2)on1 [Compound 561]
pIC50: > 5.00

O=C(Nc1cccc(Cl)c1-c1cc(-c2cccc(NC(=O)C(Cl)Cl)c2)on1)c1cccnc1 [Compound 562]
pIC50: > 5.00

CN(C(=O)C(Cl)Cl)c1cccc(-c2cc(-c3c(Cl)cccc3N=[N+]=[N-])no2)c1 [Compound 563]
pIC50: > 5.00

CN(C(=O)C(Cl)Cl)c1cccc(-c2cc(-c3c(N)cccc3Cl)no2)c1 [Compound 564]
pIC50: < 5.00

CC(=O)NC1CCN(c2cccc(Cl)c2-c2cc(-c3cccc(NC(=O)C(Cl)Cl)c3)on2)C1 (centres unmarked) [Compound 565]
pIC50: > 5.00

O=C(Nc1cccc(-c2cc(-c3c(Cl)cccc3N3CCN(C(=O)C(F)(F)F)CC3)no2)c1)C(Cl)Cl [Compound 566]
pIC50: > 5.00

O=C(Nc1cccc(-c2cc(-c3c(Cl)cccc3N3CCN(S(=O)(=O)C(F)(F)F)CC3)no2)c1)C(Cl)Cl [Compound 567]
pIC50: > 5.00

CC(C)(C)OC(=O)N1CCC(Oc2cccc(Cl)c2-c2cc(-c3cccc(NC(=O)C(Cl)Cl)c3)on2)CC1 [Compound 568]
pIC50: > 5.00

O=C(Nc1cccc(-c2cc(-c3c(Cl)cccc3OC3CCNCC3)no2)c1)C(Cl)Cl [Compound 569]
pIC50: > 5.00

CC(C)(C)OC(=O)N1CCCC(Oc2cccc(Cl)c2-c2cc(-c3cccc(NC(=O)C(Cl)Cl)c3)on2)C1 (centres unmarked) [Compound 570]
pIC50: > 5.00

O=C(Nc1cccc(-c2cc(-c3c(Cl)cccc3OC3CCCNC3)no2)c1)C(Cl)Cl (centres unmarked) [Compound 571]
pIC50: > 5.00

O=C(NC1CCN(c2cccc(Cl)c2-c2cc(-c3cccc(NC(=O)C(Cl)Cl)c3)on2)C1)c1ccccn1 (centres unmarked) [Compound 572]
pIC50: > 5.00

CS(=O)(=O)NC1CCN(c2cccc(Cl)c2-c2cc(-c3cccc(NC(=O)C(Cl)Cl)c3)on2)C1 (centres unmarked) [Compound 573]
pIC50: > 5.00

CN(C)C(=O)NC1CCN(c2cccc(Cl)c2-c2cc(-c3cccc(NC(=O)C(Cl)Cl)c3)on2)C1 (centres unmarked) [Compound 574]
pIC50: > 5.00

CCNC(=O)NC1CCN(c2cccc(Cl)c2-c2cc(-c3cccc(NC(=O)C(Cl)Cl)c3)on2)C1 (centres unmarked) [Compound 575]
pIC50: > 5.00

CS(=O)(=O)N1CCC(Oc2cccc(Cl)c2-c2cc(-c3cccc(NC(=O)C(Cl)Cl)c3)on2)CC1 [Compound 576]
pIC50: > 5.00

CC(=O)N1CCC(Oc2cccc(Cl)c2-c2cc(-c3cccc(NC(=O)C(Cl)Cl)c3)on2)CC1 [Compound 577]
pIC50: > 5.00

CCNC(=O)N1CCC(Oc2cccc(Cl)c2-c2cc(-c3cccc(NC(=O)C(Cl)Cl)c3)on2)CC1 [Compound 578]
pIC50: > 5.00

CCNC(=O)NC1CCN(c2cccc(Cl)c2-c2cc(-c3cccc(NC(=O)C(Cl)Cl)c3)on2)CC1 [Compound 579]
pIC50: > 5.00

CN(c1cccc(Cl)c1-c1cc(-c2cccc(NC(=O)C(Cl)Cl)c2)on1)C1CCN(C(=O)OC(C)(C)C)CC1 [Compound 580]
pIC50: > 5.00

CN(c1cccc(Cl)c1-c1cc(-c2cccc(NC(=O)C(Cl)Cl)c2)on1)C1CCNCC1 [Compound 581]
pIC50: > 5.00

CC(=O)N1CCC(N(C)c2cccc(Cl)c2-c2cc(-c3cccc(NC(=O)C(Cl)Cl)c3)on2)CC1 [Compound 582]
pIC50: > 5.00
